PubChem BioAssay (NCI)
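Step 1: Grow cells in 96-well plates. Step 2: Expose to compound for 48 hours at 5 concentrations. Step 3: Interpolate endpoints linearly; if unreached, use highest concentration. GI50: concentration for 50% inhibition of growth. At the TGI there is no net growth.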

Assays:
Experiment in all cases: DTP human tumour cell line panel, 48 h
U251 CNS = system: U251 CNS
SK-MEL-28 melanoma = system: SK-MEL-28 melanoma
A498 renal = system: A498 renal
UO-31 renal = system: UO-31 renal
DU-145 prostate = system: DU-145 prostate
SN12C renal = system: SN12C renal
SF-268 CNS = system: SF-268 CNS
PC-3 prostate = system: PC-3 prostate
NCI-H23 lung = system: NCI-H23 lung
MDA-MB-231 breast = system: MDA-MB-231 breast
HCT-15 colon = system: HCT-15 colon
MALME-3M melanoma = system: MALME-3M melanoma
ACHN renal = system: ACHN renal
IGROV1 ovarian = system: IGROV1 ovarian
UACC-257 melanoma = system: UACC-257 melanoma
OVCAR-8 ovarian = system: OVCAR-8 ovarian
SF-295 CNS = system: SF-295 CNS
UACC-62 melanoma = system: UACC-62 melanoma
NCI-H522 lung = system: NCI-H522 lung
A549 NSCLC = system: A549 NSCLC
HCC-2998 colon = system: HCC-2998 colon
SF-539 CNS = system: SF-539 CNS
LOX IMVI melanoma = system: LOX IMVI melanoma
KM12 colon = system: KM12 colon
EKVX NSCLC = system: EKVX NSCLC
786-0 renal = system: 786-0 renal
SK-MEL-2 melanoma = system: SK-MEL-2 melanoma
SK-OV-3 ovarian = system: SK-OV-3 ovarian
NCI-H460 lung = system: NCI-H460 lung
K-562 leukemia = system: K-562 leukemia
CCRF-CEM leukemia = system: CCRF-CEM leukemia
M14 melanoma = system: M14 melanoma
MDA-MB-435 = system: MDA-MB-435
RXF 393 renal = system: RXF 393 renal
SW-620 colon = system: SW-620 colon
T-47D breast = system: T-47D breast
SR leukemia = system: SR leukemia
SNB-19 CNS = system: SNB-19 CNS
SK-MEL-5 melanoma = system: SK-MEL-5 melanoma
NCI/ADR-RES ovarian = system: NCI/ADR-RES ovarian
HCT-116 colon = system: HCT-116 colon
NCI-H226 lung = system: NCI-H226 lung
COLO 205 colon = system: COLO 205 colon
BT-549 breast = system: BT-549 breast
HOP-62 NSCLC = system: HOP-62 NSCLC
TK-10 renal = system: TK-10 renal
HL-60(TB) leukemia = system: HL-60(TB) leukemia
OVCAR-4 ovarian = system: OVCAR-4 ovarian
HT29 colon = system: HT29 colon
OVCAR-5 ovarian = system: OVCAR-5 ovarian
SNB-75 CNS = system: SNB-75 CNS
OVCAR-3 ovarian = system: OVCAR-3 ovarian
HS 578T breast = system: HS 578T breast
RPMI-8226 leukemia = system: RPMI-8226 leukemia
MOLT-4 leukemia = system: MOLT-4 leukemia
HOP-92 NSCLC = system: HOP-92 NSCLC
CAKI-1 renal = system: CAKI-1 renal
MCF7 breast = system: MCF7 breast
MDA-N = system: MDA-N

## COC(=O)c1cc(C)[nH]c2c(C)cc3nc4ccccc4c3c12
U251 CNS
  GI50: 10.7 µM
  TGI: 23.9 µM
SK-MEL-28 melanoma
  GI50: 14.6 µM
  TGI: 28.3 µM
A498 renal
  GI50: 6.07 µM
  TGI: 21.2 µM
UO-31 renal
  GI50: 4.46 µM
  TGI: 19.1 µM
DU-145 prostate
  GI50: 11.8 µM
  TGI: 24.7 µM
SN12C renal
  GI50: 11.7 µM
  TGI: 30.8 µM
SF-268 CNS
  GI50: 11 µM
  TGI: 23.8 µM
PC-3 prostate
  GI50: 4.86 µM
  TGI: 18.8 µM
NCI-H23 lung
  GI50: 7.54 µM
  TGI: 26.4 µM
MDA-MB-231 breast
  GI50: 2.44 µM
  TGI: 10.5 µM
HCT-15 colon
  GI50: 5.19 µM
  TGI: 22.2 µM
MALME-3M melanoma
  GI50: 14.7 µM
  TGI: 28.5 µM
ACHN renal
  GI50: 11.6 µM
  TGI: 25.4 µM
IGROV1 ovarian
  GI50: 6.01 µM
  TGI: 23.9 µM
UACC-257 melanoma
  GI50: 16.1 µM
  TGI: 30 µM
OVCAR-8 ovarian
  GI50: 6.35 µM
  TGI: 19 µM
SF-295 CNS
  GI50: 3.41 µM
  TGI: 14.1 µM
UACC-62 melanoma
  GI50: 5.99 µM
  TGI: 21.1 µM
NCI-H522 lung
  GI50: 3.23 µM
  TGI: 14.5 µM
A549 NSCLC
  GI50: 10.2 µM
  TGI: 22.8 µM
HCC-2998 colon
  GI50: 8.99 µM
  TGI: 23.9 µM
SF-539 CNS
  GI50: 12.4 µM
  TGI: 26.4 µM
LOX IMVI melanoma
  GI50: 5.38 µM
  TGI: 32.2 µM
KM12 colon
  GI50: 4.94 µM
  TGI: 18.1 µM
EKVX NSCLC
  GI50: 6.5 µM
  TGI: 20.5 µM
786-0 renal
  GI50: 7.1 µM
  TGI: 21.4 µM
SK-MEL-2 melanoma
  GI50: 13.2 µM
  TGI: 28.8 µM
SK-OV-3 ovarian
  GI50: 13.4 µM
  TGI: 26.5 µM
NCI-H460 lung
  GI50: 4.25 µM
  TGI: 22.5 µM
K-562 leukemia
  GI50: 4.34 µM
  TGI: 46.1 µM
CCRF-CEM leukemia
  GI50: 5.23 µM
  TGI: 86.4 µM
M14 melanoma
  GI50: 11 µM
  TGI: 23.7 µM
MDA-MB-435
  GI50: 9.01 µM
  TGI: 22.2 µM
RXF 393 renal
  GI50: 11.6 µM
  TGI: 25 µM
SW-620 colon
  GI50: 7.91 µM
  TGI: 27 µM
T-47D breast
  GI50: 3.2 µM
  TGI: 12.9 µM
SR leukemia
  GI50: 6.13 µM
  TGI: 58.2 µM
SNB-19 CNS
  GI50: 12.7 µM
  TGI: 29.5 µM
SK-MEL-5 melanoma
  GI50: 5.97 µM
  TGI: 19.2 µM
NCI/ADR-RES ovarian
  GI50: 3.87 µM
  TGI: 18 µM
HCT-116 colon
  GI50: 10.2 µM
  TGI: 23 µM
NCI-H226 lung
  GI50: 14 µM
  TGI: 28.9 µM
COLO 205 colon
  GI50: 12.7 µM
  TGI: 25.8 µM
BT-549 breast
  GI50: 12.1 µM
  TGI: 25 µM
HOP-62 NSCLC
  GI50: 12.4 µM
  TGI: 25.1 µM
TK-10 renal
  GI50: 5.73 µM
  TGI: 19.5 µM
HL-60(TB) leukemia
  GI50: 7.34 µM
  TGI: 55.3 µM
OVCAR-4 ovarian
  GI50: 12.5 µM
  TGI: 25.3 µM
HT29 colon
  GI50: 3.11 µM
  TGI: 13.5 µM
OVCAR-5 ovarian
  GI50: 15.6 µM
  TGI: 32.7 µM
SNB-75 CNS
  GI50: 8.5 µM
  TGI: 21 µM
OVCAR-3 ovarian
  GI50: 10.3 µM
  TGI: 22.1 µM
HS 578T breast
  GI50: 15 µM
  TGI: > 100 µM
RPMI-8226 leukemia
  GI50: 5.75 µM
  TGI: 46.9 µM
MOLT-4 leukemia
  GI50: 4.83 µM
  TGI: 42.2 µM
HOP-92 NSCLC
  GI50: 5.85 µM
  TGI: 20.7 µM
CAKI-1 renal
  GI50: 2.89 µM
  TGI: 13.4 µM
MCF7 breast
  GI50: 8.01 µM
  TGI: 22.8 µM

## CCN(CC)C(=O)c1cc([N+](=O)[O-])c(=O)n2c1[nH]c1ccccc12
SK-MEL-28 melanoma
  TGI: > 100 µM
UO-31 renal
  TGI: > 100 µM
DU-145 prostate
  TGI: > 100 µM
SN12C renal
  TGI: > 100 µM
SF-268 CNS
  TGI: > 100 µM
PC-3 prostate
  TGI: > 100 µM
NCI-H23 lung
  TGI: > 100 µM
MDA-MB-231 breast
  TGI: > 100 µM
MALME-3M melanoma
  TGI: > 100 µM
ACHN renal
  TGI: > 100 µM
IGROV1 ovarian
  TGI: > 100 µM
UACC-257 melanoma
  TGI: > 100 µM
OVCAR-8 ovarian
  TGI: > 100 µM
SF-295 CNS
  TGI: > 100 µM
UACC-62 melanoma
  TGI: > 100 µM
NCI-H522 lung
  TGI: > 100 µM
A549 NSCLC
  TGI: > 100 µM
HCC-2998 colon
  TGI: > 100 µM
MDA-N
  TGI: > 100 µM
SF-539 CNS
  TGI: > 100 µM
LOX IMVI melanoma
  TGI: > 100 µM
KM12 colon
  TGI: > 100 µM
EKVX NSCLC
  TGI: > 100 µM
786-0 renal
  TGI: > 100 µM
SK-OV-3 ovarian
  TGI: > 100 µM
NCI-H460 lung
  TGI: > 100 µM
K-562 leukemia
  TGI: > 100 µM
CCRF-CEM leukemia
  TGI: > 100 µM
M14 melanoma
  TGI: > 100 µM
MDA-MB-435
  TGI: > 100 µM
RXF 393 renal
  TGI: > 100 µM
SW-620 colon
  TGI: > 100 µM
T-47D breast
  TGI: > 100 µM
SR leukemia
  TGI: > 100 µM
SNB-19 CNS
  TGI: > 100 µM
SK-MEL-5 melanoma
  TGI: > 100 µM
NCI/ADR-RES ovarian
  TGI: > 100 µM
HCT-116 colon
  TGI: > 100 µM
NCI-H226 lung
  TGI: > 100 µM
COLO 205 colon
  TGI: > 100 µM
HOP-62 NSCLC
  TGI: > 100 µM
TK-10 renal
  TGI: > 100 µM
HL-60(TB) leukemia
  TGI: > 100 µM
OVCAR-4 ovarian
  TGI: > 100 µM
HT29 colon
  TGI: > 100 µM
OVCAR-5 ovarian
  TGI: > 100 µM
SNB-75 CNS
  TGI: > 100 µM
OVCAR-3 ovarian
  TGI: > 100 µM
HS 578T breast
  TGI: > 100 µM
RPMI-8226 leukemia
  TGI: > 100 µM
MOLT-4 leukemia
  TGI: > 100 µM
HOP-92 NSCLC
  TGI: > 100 µM
CAKI-1 renal
  TGI: > 100 µM

## CC(C)c1cc(C(C)C)c(B(c2ccccc2)c2ccccc2)c(C(C)C)c1B(c1ccccc1)c1ccccc1
DU-145 prostate
  TGI: > 100 µM
SN12C renal
  TGI: > 100 µM
SF-268 CNS
  TGI: > 100 µM
PC-3 prostate
  TGI: > 100 µM
MDA-MB-231 breast
  TGI: > 100 µM
HCT-15 colon
  TGI: > 100 µM
MALME-3M melanoma
  TGI: > 100 µM
ACHN renal
  TGI: > 100 µM
IGROV1 ovarian
  TGI: > 100 µM
UACC-257 melanoma
  TGI: > 100 µM
OVCAR-8 ovarian
  TGI: > 100 µM
SF-295 CNS
  TGI: > 100 µM
UACC-62 melanoma
  TGI: > 100 µM
NCI-H522 lung
  TGI: > 100 µM
A549 NSCLC
  TGI: > 100 µM
MDA-N
  TGI: > 100 µM
LOX IMVI melanoma
  TGI: > 100 µM
EKVX NSCLC
  TGI: > 100 µM
SK-MEL-2 melanoma
  TGI: > 100 µM
SK-OV-3 ovarian
  TGI: > 100 µM
NCI-H460 lung
  TGI: > 100 µM
M14 melanoma
  TGI: > 100 µM
SW-620 colon
  TGI: > 100 µM
T-47D breast
  TGI: > 100 µM
SR leukemia
  TGI: > 100 µM
SK-MEL-5 melanoma
  TGI: > 100 µM
NCI/ADR-RES ovarian
  TGI: > 100 µM
HCT-116 colon
  TGI: > 100 µM
COLO 205 colon
  TGI: > 100 µM
HOP-62 NSCLC
  TGI: > 100 µM
OVCAR-4 ovarian
  TGI: > 100 µM
HT29 colon
  TGI: > 100 µM
SNB-75 CNS
  TGI: > 100 µM
OVCAR-3 ovarian
  TGI: > 100 µM
HS 578T breast
  TGI: > 100 µM
MOLT-4 leukemia
  TGI: > 100 µM
HOP-92 NSCLC
  TGI: > 100 µM
